System: MV-4-11 cells
Assay: Gene expression microarray analysis (Affymetrix PrimeView) and GSEA
Assay type: cell-based, human
Design: RFU PODN (11730768_x_at) / Fold change /veh PODN (11730768_x_at) / RFU LINC00158 (11744669_a_at) / Fold change /veh LINC00158 (11744669_a_at) / RFU DUSP10 (11751237_a_at) / Fold change /veh DUSP10 (11751237_a_at) / RFU ID3 (11757404_x_at) / Fold change /veh ID3 (11757404_x_at) / RFU PLEKHG5 (11737974_s_at) / Fold change /veh PLEKHG5 (11737974_s_at) / RFU LRRC4B (11730491_at) / Fold change /veh LRRC4B (11730491_at) / RFU GIMAP4 (11747438_a_at) / Fold change /veh GIMAP4 (11747438_a_at) / RFU KRT8 (11758183_x_at) / Fold change /veh KRT8 (11758183_x_at) / RFU CNN1 (11734310_a_at) / Fold change /veh CNN1 (11734310_a_at) / RFU VPS37D (11726825_at) / Fold change /veh VPS37D (11726825_at) / RFU C10orf10 (11716522_x_at) / Fold change /veh C10orf10 (11716522_x_at) / RFU KIR2DL2 /// KIR2DL4 /// KIR2DL5A /// KIR2DL5B /// KIR2DS1 /// KIR2DS2 /// KIR2DS3 /// KIR2DS4 /// KIR3DL3 /// KIR3DL3 /// KIR3DS1 (11738374_at) / Fold change /veh KIR2DL2 /// KIR2DL4 /// KIR2DL5A /// KIR2DL5B /// KIR2DS1 /// KIR2DS2 /// KIR2DS3 /// KIR2DS4 /// KIR3DL3 /// KIR3DL3 /// KIR3DS1 (11738374_at) / RFU C1QL1 (11718748_at) / Fold change /veh C1QL1 (11718748_at) / RFU TMPRSS4 (11747572_a_at) / Fold change /veh TMPRSS4 (11747572_a_at) / RFU HAMP (11756126_x_at) / Fold change /veh HAMP (11756126_x_at) / RFU RNFT2 (11725882_a_at) / Fold change /veh RNFT2 (11725882_a_at) / RFU NR4A2 (11747474_a_at) / Fold change /veh NR4A2 (11747474_a_at) / RFU ABCC12 (11746883_a_at) / Fold change /veh ABCC12 (11746883_a_at) / RFU TMEM136 (11760407_x_at) / Fold change /veh TMEM136 (11760407_x_at) / RFU CLDN22 /// WWC2 (11732394_at) / Fold change /veh CLDN22 /// WWC2 (11732394_at) / RFU HLA-DPB1 (11760878_x_at) / Fold change /veh HLA-DPB1 (11760878_x_at) / RFU SPINT1 (11716480_a_at) / Fold change /veh SPINT1 (11716480_a_at) / RFU GAP43 (11754022_s_at) / Fold change /veh GAP43 (11754022_s_at) / RFU A4GNT (11735810_at) / Fold change /veh A4GNT (11735810_at) / RFU PRB3 (11715151_x_at) / Fold change /veh PRB3 (11715151_x_at) / RFU TUBB4B (11761932_at) / Fold change /veh TUBB4B (11761932_at) / RFU CAPN14 (11732068_a_at) / Fold change /veh CAPN14 (11732068_a_at) / RFU TMCC2 (11721928_a_at) / Fold change /veh TMCC2 (11721928_a_at) / RFU IRGQ (11745062_a_at) / Fold change /veh IRGQ (11745062_a_at) / RFU FAM174B (11720279_a_at) / Fold change /veh FAM174B (11720279_a_at) / RFU TMPRSS4 (11748680_a_at) / Fold change /veh TMPRSS4 (11748680_a_at) / RFU FAM212B (11763350_a_at) / Fold change /veh FAM212B (11763350_a_at) / RFU PLEKHG5 (11743358_a_at) / Fold change /veh PLEKHG5 (11743358_a_at) / RFU ZSCAN30 (11745921_a_at) / Fold change /veh ZSCAN30 (11745921_a_at) / RFU CMKLR1 (11741424_a_at) / Fold change /veh CMKLR1 (11741424_a_at) / RFU LOC101060620 /// MAPK8IP1 (11723275_at) / Fold change /veh LOC101060620 /// MAPK8IP1 (11723275_at) / RFU SPTSSB (11747773_x_at) / Fold change /veh SPTSSB (11747773_x_at) / RFU PRSS12 (11739890_at) / Fold change /veh PRSS12 (11739890_at) / RFU BIN1 (11741810_x_at) / Fold change /veh BIN1 (11741810_x_at) / RFU WNT11 (11732464_a_at) / Fold change /veh WNT11 (11732464_a_at) / RFU C10orf10 (11716521_a_at) / Fold change /veh C10orf10 (11716521_a_at) / RFU C5orf56 (11738089_at) / Fold change /veh C5orf56 (11738089_at) / RFU CYB561 (11721691_x_at) / Fold change /veh CYB561 (11721691_x_at) / RFU ANKRD19P (11752326_a_at) / Fold change /veh ANKRD19P (11752326_a_at) / RFU OR2T12 /// OR2T33 /// OR2T8 (11738714_s_at) / Fold change /veh OR2T12 /// OR2T33 /// OR2T8 (11738714_s_at) / RFU VCAN (11748164_a_at) / Fold change /veh VCAN (11748164_a_at) / RFU JSRP1 (11732532_at) / Fold change /veh JSRP1 (11732532_at) / RFU KRTAP10-11 (11738290_x_at) / Fold change /veh KRTAP10-11 (11738290_x_at) / RFU MYO3A (11730013_a_at) / Fold change /veh MYO3A (11730013_a_at) / RFU EBF3 (11725865_a_at) / Fold change /veh EBF3 (11725865_a_at) / RFU CAMK2N1 (11719241_x_at) / Fold change /veh CAMK2N1 (11719241_x_at) / RFU C5orf56 (11738088_a_at) / Fold change /veh C5orf56 (11738088_a_at) / RFU OLFML3 (11715873_a_at) / Fold change /veh OLFML3 (11715873_a_at) / RFU LOC100653217 /// NTM (11731650_a_at) / Fold change /veh LOC100653217 /// NTM (11731650_a_at) / RFU MAPK11 (11762145_a_at) / Fold change /veh MAPK11 (11762145_a_at) / RFU FIZ1 (11724087_x_at) / Fold change /veh FIZ1 (11724087_x_at) / RFU OASL (11726364_x_at) / Fold change /veh OASL (11726364_x_at) / RFU SOX15 (11748057_x_at) / Fold change /veh SOX15 (11748057_x_at) / RFU CD79A (11719716_a_at) / Fold change /veh CD79A (11719716_a_at) / RFU HIST1H1D (11736915_at) / Fold change /veh HIST1H1D (11736915_at) / RFU CASKIN2 (11723855_a_at) / Fold change /veh CASKIN2 (11723855_a_at) / RFU LOC730098 (11760151_x_at) / Fold change /veh LOC730098 (11760151_x_at) / RFU OR4N2 (11742367_at) / Fold change /veh OR4N2 (11742367_at) / RFU PRRT2 (11749266_a_at) / Fold change /veh PRRT2 (11749266_a_at) / RFU SNX32 (11753110_a_at) / Fold change /veh SNX32 (11753110_a_at) / RFU CDHR5 (11726645_a_at) / Fold change /veh CDHR5 (11726645_a_at) / RFU RCAN1 (11760418_a_at) / Fold change /veh RCAN1 (11760418_a_at) / RFU FAM167A (11723789_a_at) / Fold change /veh FAM167A (11723789_a_at) / RFU FAM26E (11764081_at) / Fold change /veh FAM26E (11764081_at) / RFU ISYNA1 (11749810_s_at) / Fold change /veh ISYNA1 (11749810_s_at) / RFU ACY1 (11761880_at) / Fold change /veh ACY1 (11761880_at) / RFU 11764098_at / Fold change /veh 11764098_at / RFU SAMD14 (11745864_x_at) / Fold change /veh SAMD14 (11745864_x_at) / RFU NPB (11741838_a_at) / Fold change /veh NPB (11741838_a_at) / RFU TMPRSS6 (11731388_a_at) / Fold change /veh TMPRSS6 (11731388_a_at) / RFU KRTAP10-2 (11738614_at) / Fold change /veh KRTAP10-2 (11738614_at) / RFU ARHGAP8 /// PRR5-ARHGAP8 (11727945_x_at) / Fold change /veh ARHGAP8 /// PRR5-ARHGAP8 (11727945_x_at) / RFU KRTAP5-7 /// NADSYN1 (11734609_at) / Fold change /veh KRTAP5-7 /// NADSYN1 (11734609_at) / RFU RASL12 (11751679_a_at) / Fold change /veh RASL12 (11751679_a_at) / RFU CDKN2B (11736163_a_at) / Fold change /veh CDKN2B (11736163_a_at) / RFU PRF1 (11729649_at) / Fold change /veh PRF1 (11729649_at) / RFU, ZNF638 /// ZNF638-IT1 / Fold change vs veh, ZNF638 /// ZNF638-IT1 / RFU, PANK3 / Fold change vs veh, PANK3 / RFU, SH3YL1 / Fold change vs veh, SH3YL1 / RFU, ZEB2 / Fold change vs veh, ZEB2 / RFU, NRIP1 / Fold change vs veh, NRIP1 / RFU, PTTG1IP / Fold change vs veh, PTTG1IP / RFU, CAPN2 / Fold change vs veh, CAPN2 / RFU, MED14 / Fold change vs veh, MED14 / RFU, SNORA58 / Fold change vs veh, SNORA58 / RFU, C1orf63 / Fold change vs veh, C1orf63 / RFU, LRRFIP1 / Fold change vs veh, LRRFIP1 / RFU, NDUFAF7 / Fold change vs veh, NDUFAF7 / RFU, SLC12A2 / Fold change vs veh, SLC12A2 / RFU, IBTK / Fold change vs veh, IBTK / RFU, ESF1 / Fold change vs veh, ESF1 / Fold change vs veh, TMEM50B / RFU, TAOK1 / Fold change vs veh, TAOK1 / RFU, ACBD3 / Fold change vs veh, ACBD3 / RFU, TMA16 / Fold change vs veh, TMA16 / RFU, RWDD3 / Fold change vs veh, RWDD3 / RFU, BCAT1 / Fold change vs veh, BCAT1 / RFU, EDEM3 / Fold change vs veh, EDEM3 / RFU, TMEM33 / Fold change vs veh, TMEM33 / RFU, WDR75 / Fold change vs veh, WDR75 / RFU, AHCTF1 / Fold change vs veh, AHCTF1 / RFU, TFRC / Fold change vs veh, TFRC / RFU, ZDHHC17 / Fold change vs veh, ZDHHC17 / RFU, NOM1 / Fold change vs veh, NOM1 / RFU, ARL8B / Fold change vs veh, ARL8B / RFU, ZBTB11 / Fold change vs veh, ZBTB11 / RFU, TAMM41 / Fold change vs veh, TAMM41 / RFU, KIAA1704 /// LOC100996395 / Fold change vs veh, KIAA1704 /// LOC100996395 / RFU, ING1 / Fold change vs veh, ING1 / RFU, TRMT61B / Fold change vs veh, TRMT61B / RFU, FUBP3 / Fold change vs veh, FUBP3 / RFU, TP53 / Fold change vs veh, TP53 / RFU, TNKS2 / Fold change vs veh, TNKS2 / RFU, ZFP14 / Fold change vs veh, ZFP14 / RFU, ACTR2 / Fold change vs veh, ACTR2 / RFU, PPP3R1 / Fold change vs veh, PPP3R1 / RFU, PIK3R1 / Fold change vs veh, PIK3R1 / RFU, HNRNPA1 / Fold change vs veh, HNRNPA1 / RFU, RNF170 / Fold change vs veh, RNF170 / RFU, ZNF28 / Fold change vs veh, ZNF28 / RFU, RNGTT / Fold change vs veh, RNGTT / RFU, OGT / Fold change vs veh, OGT / RFU, BRD1 / Fold change vs veh, BRD1 / RFU, MARS / Fold change vs veh, MARS / RFU, ZNF655 / Fold change vs veh, ZNF655 / RFU, FAHD1 / Fold change vs veh, FAHD1 / RFU, BDP1 / Fold change vs veh, BDP1 / RFU, LRRCC1 / Fold change vs veh, LRRCC1 / RFU, ARID1A / Fold change vs veh, ARID1A / RFU, ZNF146 / Fold change vs veh, ZNF146 / RFU, ZNF330 / Fold change vs veh, ZNF330 / RFU, GPN3 / Fold change vs veh, GPN3 / RFU, C9orf123 / Fold change vs veh, C9orf123 / RFU, N4BP2L2 / Fold change vs veh, N4BP2L2 / RFU, ARFIP1 / Fold change vs veh, ARFIP1 / RFU, FAM179B / Fold change vs veh, FAM179B / RFU, BCL10 / Fold change vs veh, BCL10 / RFU, UHRF1BP1L / Fold change vs veh, UHRF1BP1L / RFU, BET1 / Fold change vs veh, BET1 / RFU, CNOT2 / Fold change vs veh, CNOT2 / RFU, ZNF268 / Fold change vs veh, ZNF268 / Fold change vs veh, ZNF507 / RFU, DGCR2 / Fold change vs veh, DGCR2 / RFU, WDSUB1 / Fold change vs veh, WDSUB1 / Fold change vs veh, HSP90B1 /// MIR3652 / RFU, ADSS / Fold change vs veh, ADSS / RFU, GK / Fold change vs veh, GK / RFU, ZNF148 / Fold change vs veh, ZNF148 / RFU, TAF9 / Fold change vs veh, TAF9 / RFU, SLC1A5 / Fold change vs veh, SLC1A5 / RFU, SLMO2 / Fold change vs veh, SLMO2 / RFU, ABCC4 / Fold change vs veh, ABCC4 / RFU, LOC101060439 /// RAP1B / Fold change vs veh, LOC101060439 /// RAP1B / RFU, RFX7 / Fold change vs veh, RFX7 / RFU, GTPBP10 / Fold change vs veh, GTPBP10 / RFU, CNEP1R1 / Fold change vs veh, CNEP1R1 / RFU, BIVM-ERCC5 /// ERCC5 / Fold change vs veh, BIVM-ERCC5 /// ERCC5 / RFU, ILF3 / Fold change vs veh, ILF3 / RFU 11762660_at / Fold change /veh 11762660_at / RFU VCAN (11757783_s_at) / Fold change /veh VCAN (11757783_s_at) / RFU DDX43 (11728927_at) / Fold change /veh DDX43 (11728927_at) / RFU KRT8 (11758188_x_at) / Fold change /veh KRT8 (11758188_x_at) / RFU NKD1 (11759106_at) / Fold change /veh NKD1 (11759106_at) / RFU SRD5A1 (11742802_a_at) / Fold change /veh SRD5A1 (11742802_a_at) / RFU TPSAB1 /// TPSB2 (11721975_s_at) / Fold change /veh TPSAB1 /// TPSB2 (11721975_s_at) / RFU GSTM3 (11746129_a_at) / Fold change /veh GSTM3 (11746129_a_at) / RFU IL23R (11737362_x_at) / Fold change /veh IL23R (11737362_x_at) / RFU TMEM51 (11727254_a_at) / Fold change /veh TMEM51 (11727254_a_at) / RFU PIWIL2 (11732686_x_at) / Fold change /veh PIWIL2 (11732686_x_at) / RFU ORM1 (11744905_x_at) / Fold change /veh ORM1 (11744905_x_at) / RFU CCDC152 (11743942_at) / Fold change /veh CCDC152 (11743942_at) / RFU ECM1 (11717891_a_at) / Fold change /veh ECM1 (11717891_a_at) / RFU IL23R (11748794_a_at) / Fold change /veh IL23R (11748794_a_at) / RFU TNFAIP8L3 (11732012_x_at) / Fold change /veh TNFAIP8L3 (11732012_x_at) / RFU MBOAT4 (11741988_at) / Fold change /veh MBOAT4 (11741988_at) / RFU 11764193_at / Fold change /veh 11764193_at / RFU TMEM53 (11763286_at) / Fold change /veh TMEM53 (11763286_at) / RFU MAGEB2 (11727129_at) / Fold change /veh MAGEB2 (11727129_at) / RFU TMEM200A (11744735_a_at) / Fold change /veh TMEM200A (11744735_a_at) / RFU CCDC152 (11751479_a_at) / Fold change /veh CCDC152 (11751479_a_at) / RFU FAM211A (11726209_a_at) / Fold change /veh FAM211A (11726209_a_at) / RFU RGS16 (11746705_a_at) / Fold change /veh RGS16 (11746705_a_at) / RFU VCAN (11755009_s_at) / Fold change /veh VCAN (11755009_s_at) / RFU RHOB (11743442_s_at) / Fold change /veh RHOB (11743442_s_at) / RFU RGS16 (11720943_a_at) / Fold change /veh RGS16 (11720943_a_at) / RFU RGS16 (11720944_at) / Fold change /veh RGS16 (11720944_at) / RFU, VPS4B / Fold change vs veh, VPS4B / RFU, CREB1 / Fold change vs veh, CREB1 / RFU, DNAJC13 / Fold change vs veh, DNAJC13 / RFU, GNAQ / Fold change vs veh, GNAQ / RFU, CDK5R1 / Fold change vs veh, CDK5R1 / RFU, ZRANB3 / Fold change vs veh, ZRANB3 / RFU, CUL4A / Fold change vs veh, CUL4A / RFU, CCNY / Fold change vs veh, CCNY / RFU, UFL1 / Fold change vs veh, UFL1 / RFU, COG3 / Fold change vs veh, COG3 / RFU, DIAPH2 / Fold change vs veh, DIAPH2 / RFU, SKA2 / Fold change vs veh, SKA2 / RFU, AFF3 / Fold change vs veh, AFF3 / RFU, LMF1 / Fold change vs veh, LMF1 / RFU, IPO11 / Fold change vs veh, IPO11 / RFU, DFFB / Fold change vs veh, DFFB / RFU, FOXP1 / Fold change vs veh, FOXP1 / RFU, CARD8 / Fold change vs veh, CARD8 / RFU, STRN3 / Fold change vs veh, STRN3 / RFU, ADK / Fold change vs veh, ADK / RFU, RASSF2 / Fold change vs veh, RASSF2 / RFU, WIPF1 / Fold change vs veh, WIPF1 / RFU, LARP1B / Fold change vs veh, LARP1B / RFU, RASA1 / Fold change vs veh, RASA1 / RFU, RB1 / Fold change vs veh, RB1 / RFU, PPFIA1 / Fold change vs veh, PPFIA1 / RFU, MAT2A / Fold change vs veh, MAT2A / RFU, CCT5 / Fold change vs veh, CCT5 / RFU, WDR92 / Fold change vs veh, WDR92 / RFU, CUX1 / Fold change vs veh, CUX1 / RFU, TTC7A / Fold change vs veh, TTC7A / RFU, TMEM135 / Fold change vs veh, TMEM135 / RFU, DEPTOR / Fold change vs veh, DEPTOR / RFU, CPM / Fold change vs veh, CPM / RFU, DNAJB6 / Fold change vs veh, DNAJB6 / RFU, CACNA2D3 / Fold change vs veh, CACNA2D3 / RFU, DTX4 / Fold change vs veh, DTX4 / RFU, TFCP2 / Fold change vs veh, TFCP2 / RFU, GMCL1 /// GMCL1P1 / Fold change vs veh, GMCL1 /// GMCL1P1 / RFU, AEBP2 / Fold change vs veh, AEBP2 / RFU, SNHG1 /// SNORD22 /// SNORD25 /// SNORD26 /// SNORD27 /// SNORD28 /// SNORD29 /// SNORD31 / Fold change vs veh, SNHG1 /// SNORD22 /// SNORD25 /// SNORD26 /// SNORD27 /// SNORD28 /// SNORD29 /// SNORD31 / Fold change (Aza/veh), C12orf56 (ProbeSet 11735607_a_at) / Fold change (ACY-1035/veh), C12orf56 (ProbeSet 11735607_a_at) / Fold change (Aza/veh), FGFR1OP (ProbeSet 11751329_s_at) / Fold change (ACY-1035/veh), FGFR1OP (ProbeSet 11751329_s_at) / Fold change (Aza/veh), VPS36 (ProbeSet 11739960_a_at) / Fold change (ACY-1035/veh), VPS36 (ProbeSet 11739960_a_at) / RFU SYPL1 (11715823_x_at) / Fold change /veh SYPL1 (11715823_x_at) / RFU IGFBP7 (11715501_s_at) / Fold change /veh IGFBP7 (11715501_s_at) / RFU REEP3 (11722064_at) / Fold change /veh REEP3 (11722064_at) / RFU IGLL1 (11728026_x_at) / Fold change /veh IGLL1 (11728026_x_at): dose or concentration left out as unconfirmed
Details: ProbeSet 11728443_a_at; LIST B

Nc1ccc(-c2cccs2)cc1NC(=O)c1ccc2c(c1)cc(C1CC1)n2CCN1CCOCC1 [ACY-1035]
RFU, TAOK1: 54.83 RFU

Source: PMC5218480 (PLoS ONE, 2017)
